This passage reports GI50 and TGI results from PubChem BioAssay (NCI).

Values joined by “and” are separate entries in the source; they are usually repeats but may differ in a detail not shown here. Equal values may be shown once.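 Method: 48-hour compound exposure of cells in 96-well plates, five concentrations, linear interpolation of endpoints. GI50 is the concentration that inhibits growth by half. TGI marks complete inhibition of growth.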

What all share (assay): inhibition of tumour cell growth, NCI panel, 48 h
Assay [1] concerns HCT-15 colon.
For assay [2], the system named is RPMI-8226 leukemia.
Assay [3] relates to TK-10 renal.
The subject of assay [4] is MDA-MB-435.
For assay [5], the system named is SNB-19 CNS.
For assay [6], the system named is MALME-3M melanoma.
Assay [7] has as its system A549 NSCLC.
Assay [8] concerns A498 renal.
Assay [9] has as its system NCI-H23 lung.
Assay [10] has as its system NCI-H522 lung.

Consider `CCOc1ccccc1/C=N\N=C(N/N=C/c1ccccc1OCC)N/N=C/c1ccccc1OCC`, for which the GI50 in assay [1] is 0.95 µM; in assay [2], 1.73 µM; in assay [3], 2.81 µM; in [4], 3.44 µM; in assay [5] it was 2.2 µM; in assay [6] it was 5.69 µM. Moreover, the GI50 in assay [7] is 2.65 µM; in assay [8], 2.17 µM; in assay [9], 2.77 µM. Besides, the TGI in assay [1], in assay [2], in assay [3], in [4], in assay [5] and in assay [6] was > 100 µM in each case. The values for the TGI in assay [7], in assay [8] and in [9] were > 100 µM, 8.45 µM and > 100 µM, respectively.

`CCNCC(=O)Nc1ccc2c(c1)C(=O)c1ccc(NC(=O)CNCC)cc1C2=O`: the TGI in assay [1] turned out to be 8.29 µM; in assay [3], 18.7 µM; in [4] it was 6.18 µM; in assay [5], 12.1 µM; in assay [6], 33 µM; in [7] it was 14.6 µM. In addition, the TGI is 6.46 µM in assay [8], 4.61 µM in assay [10] and 14.8 µM in [9].

In the case of `Cc1nc2ccccc2c(=O)n1/N=C(\N=Nc1ccccc1)c1ccccc1Cl`, the TGI was > 100 µM in assay [1]; > 100 µM in assay [2]; > 86.4 µM in [3]; > 100 µM in assay [5]; > 100 µM in assay [6]; > 100 µM in assay [7]. Also, the TGI in [8] is > 100 µM; in assay [10], > 74.4 µM; in assay [9], > 100 µM.

For the molecule `CCOC(=O)C1CC(=O)C=C2CCCCC21` (centres undefined), the TGI in assay [1], in assay [2], in [3], in [5], in [6] and in assay [7] was > 100 µM in each case. In addition, the TGI in assay [8], in [10] and in [9] was > 100 µM throughout.

For the molecule `CC[C@]12CN3CCc4c([nH]c5ccccc45)[C@@](C(=O)OC)(c4cc5c(cc4OC)N(C)[C@H]4[C@@](O)(C(=O)OC)[C@H](OC(C)=O)[C@]6(CC)C=CCN7CC[C@]54[C@@H]76)CC(C3)[C@H]1O2` (some centres undefined), the GI50 was 2.92 µM in assay [1]; 0.138 µM in assay [2]; 0.562 µM in assay [3]; 0.0161 µM in [4]; 0.214 µM in [5]; 0.0639 µM in assay [6]. The GI50 in assay [7] is 0.599 µM; in [8] it was 0.241 µM; in assay [9] it was 0.205 µM. Also, the TGI in assay [1] is 9.43 µM and > 28.1 µM; in assay [2], > 100 µM; in assay [3] it was > 100 µM; in assay [4], 0.0252 µM and 0.0878 µM; in assay [5], > 100 µM; in assay [6] it was > 50 µM. The figures for the TGI in assay [7] and in assay [9] were > 100 µM and > 68.1 µM, respectively.

As to `C[C@]12Cc3conc3C(O)=C1CC[C@@H]1C2CC[C@@]2(C)C1CC[C@@H]2O` (some centres undefined), the TGI was > 100 µM in assay [1]; 20.4 µM in assay [2]; > 100 µM in assay [3]; > 100 µM in assay [5]; 87.2 µM in assay [6]; 85.2 µM in [7]. Further, the TGI turned out to be 57.7 µM in [8], 13.5 µM in assay [10] and 64.3 µM in assay [9].

`COC(=O)[C@H](Cc1cn(C)cn1)NC(=O)[C@H](CC(C)C)NC(=O)Nc1cc(C(F)(F)F)cc(C(F)(F)F)c1`: the GI50 is > 10 µM in [1]; 4.98 µM in assay [2]; > 10 µM in [3]; > 10 µM in assay [4]; > 10 µM in assay [5]; > 10 µM in [6]. Moreover, the GI50 in [8] and in [9] was > 10 µM throughout. The TGI in assay [1], in assay [2], in assay [3], in assay [4], in assay [5] and in assay [6] was > 10 µM in each case. Besides, the TGI in assay [8] and in [9] was > 10 µM each time.

On to `CCCCN(CCCC)P(=O)(Oc1ccccc1)Oc1ccccc1`, for which the GI50 is 4.73 µM in [1]; 5.12 µM in [2]; 15.8 µM in assay [3]; 6.2 µM in [4]; 8.82 µM in assay [5]; 5.06 µM in assay [7]. Further, the figures for the GI50 in [8], in assay [10] and in assay [9] were 11.6 µM, 3.96 µM and 4.56 µM, respectively. Also, the TGI in assay [1] came to 22 µM; in assay [2], 26.8 µM; in assay [3] it was 33.1 µM; in assay [4], 19.9 µM; in [5], 23.5 µM; in assay [7], 19.6 µM. Also, the TGI was found to be 24.1 µM in assay [8], 18.2 µM in assay [10] and 17.7 µM in assay [9].

Take `COc1ccc(O)c(/C=N\Nc2ccccc2)c1`: the TGI in assay [1] was > 100 µM; in assay [2], 5.94 µM; in assay [4], 43.8 µM; in assay [5], > 100 µM; in assay [7] it was 48.4 µM; in assay [8] it was 91.6 µM. The TGI in [10] was 49.2 µM; in assay [9] it was 67.7 µM.

With `COc1cc2c3c(n(CCCN=[N+]=[N-])c(=O)c2cc1OC)-c1ccccc1C3=O`, the GI50 in [1] is 27.4 µM; in assay [2], 6.19 µM; in [3], 13.8 µM; in assay [4], 9.81 µM; in assay [5] it was 52.7 µM; in [7] it was 26.2 µM. Moreover, the GI50 in assay [10] is 44.8 µM; in assay [9], 3.23 µM. Also, the TGI is > 100 µM in assay [1]; > 100 µM in assay [2]; 75.5 µM in [3]; 83.9 µM in assay [4]; > 100 µM in [5]; > 100 µM in assay [7]. Moreover, the TGI in assay [10] was > 100 µM; in assay [9], 21.8 µM.

As to `Cc1[nH]c2ccccc2c1CO`, the GI50 was 18.5 µM in [1]; 26.9 µM in [2]; 21 µM in assay [3]; 16.8 µM in [4]; 39.3 µM in [5]; 38.3 µM in [7]. Further, the GI50 in assay [8] is 17.2 µM; in [10], 12.8 µM; in assay [9], 18.6 µM. Further, the TGI was 93.2 µM in [1]; > 100 µM in [2]; 67.1 µM in assay [3]; 36.6 µM in [4]; > 100 µM in [5]; > 100 µM in assay [7]. The figures for the TGI in [8], in assay [10] and in assay [9] were 56.2 µM, 28.9 µM and 46 µM, respectively.

For `COc1cccc(/C=C2\CCC(CN(C)C)C2=O)c1` (centres undefined), the TGI in assay [1] stood at 7.97 µM; in [3], 24.3 µM; in assay [4], 7.02 µM; in [5], 29.5 µM; in assay [6], 14 µM; in assay [7], 42.7 µM. Also, the figures for the TGI in [8], in [10] and in [9] were 31.5 µM, 6.15 µM and 27.3 µM, respectively.

For the molecule `Cc1cc(-c2nc3sc(C)cn3c2/C=N/N=C(N)N)c(C)s1`, the GI50 was 19.8 µM in assay [1]; 6.12 µM in assay [3]; 2.13 µM in assay [4]; 18.2 µM in [5]; 21.5 µM in assay [7]; 25.7 µM in assay [10]. For the same molecule, in assay [9], the GI50 is 14.6 µM. In addition, the TGI in assay [1] was 40 µM; in assay [3], 18.6 µM; in assay [4], 4.79 µM; in assay [5] it was 36.2 µM; in assay [7], 48.9 µM; in assay [10] it was > 100 µM. In assay [9], the TGI amounted to 28.2 µM.

Regarding `CC(=O)N1c2ccccc2N(C(C)=O)C1c1ccc(C2N(C(C)=O)c3ccccc3N2C(C)=O)[nH]1`, the TGI in assay [1], in assay [2], in assay [3], in assay [5], in assay [6] and in assay [7] was > 100 µM in each case. Further, the TGI in assay [8], in [10] and in assay [9] was > 100 µM in each case.

Consider `O=C1CCC2(c3ccc(Cl)cc3)Nc3ccccc3N12` (centres undefined), for which the TGI in [1], in assay [2], in assay [3], in [5], in assay [6] and in assay [7] was > 100 µM in each case. The TGI in [8], in assay [10] and in assay [9] was > 100 µM throughout.

`COc1ccc(C(=O)/C=C/c2cc(-c3ccc(OC)c(OC)c3)n[nH]2)cc1OC`: the GI50 in assay [1] was 1.09 µM; in assay [2] it was 0.357 µM; in [3] it was 4.96 µM; in [5], 1.67 µM; in assay [6] it was 2.59 µM; in [7], 2.25 µM. Moreover, the values for the GI50 in [8], in assay [10] and in assay [9] were 1.27 µM, 1.69 µM and 2.25 µM, respectively. Further, the TGI is 5.39 µM in assay [1]; 2.26 µM in assay [2]; 47.7 µM in [3]; 4.16 µM in [5]; 6.21 µM in assay [6]; 10.2 µM in [7]. The figures for the TGI in [8], in assay [10] and in [9] were 3.2 µM, 3.9 µM and 5.7 µM, respectively.

On to `N#CC(Sc1ccccc1)C(N)=O` (centres undefined), for which the TGI in [1], in assay [2], in assay [3], in assay [5], in assay [6] and in assay [7] was > 100 µM each time. The TGI in assay [8], in assay [10] and in [9] was > 100 µM in each case.

Consider `O=Cc1ccc(-c2ccc(-c3nc4ccccc4s3)cc2)o1`, for which the GI50 in [1] is 90.4 µM; in assay [2], 20.9 µM; in assay [3], 22.4 µM; in assay [4], > 100 µM; in assay [5], > 100 µM; in assay [7], > 100 µM. In addition, the GI50 was 3.21 µM in assay [8], > 100 µM in [10] and 67.7 µM in [9]. Further, the TGI in [1] is > 100 µM; in assay [2], > 100 µM; in assay [3] it was 54 µM; in assay [4], > 100 µM; in assay [5] it was > 100 µM; in assay [7], > 100 µM. Also, the results for the TGI in assay [8], in assay [10] and in [9] were 18.8 µM, > 100 µM and > 100 µM, respectively.

As for `CC(C)N(C(=O)C12C3C4C5C3C1(C(=O)O)C5C42)C(C)C` (centres undefined), the TGI in assay [1], in assay [2], in assay [3], in assay [5], in [6] and in [7] was > 100 µM in each case. The TGI in assay [8], in assay [10] and in assay [9] was > 100 µM in each case.

In the case of `NC1=NN(c2ccccc2)C(=O)C1C(=O)C(=O)Nc1ccccc1` (centres undefined), the TGI in assay [1], in assay [2], in assay [3], in [5], in assay [6] and in assay [7] was > 100 µM throughout. Further, the TGI in assay [8], in [10] and in assay [9] was > 100 µM in each case.

With `CCCCCCCCCCCCCCCCc1c(C(=O)OC)nc(NC#N)[nH]c1=O`, the TGI in assay [1], in assay [2], in [3], in [5], in [6] and in assay [7] was > 25 µM throughout. Further, the TGI in assay [8], in assay [10] and in [9] was > 25 µM in each case.

Turning to `CN(C)CC1(C)CC/C(=C\c2ccc(Cl)cc2)C1=O` (centres undefined), the TGI in assay [1] is > 100 µM; in [2], 43.4 µM; in assay [3], > 100 µM; in assay [5], 65.2 µM; in assay [6], > 100 µM; in assay [7] it was > 100 µM. The TGI in [8] was > 100 µM; in assay [10] it was 33.1 µM; in [9] it was > 100 µM.
